Patent US8865208B2, “Vesicle useful for external preparation for skin, and external preparation for skin comprising the vesicle” (Pola Chemical Industries Inc., priority 2007, dated 2014)

Tested on: skin
Test: Test Example 1: transepidermal water loss (TEWL) of skin pretreated with sodium lauryl sulfate, Tewameter
Format: in vivo
Settings: conclusion drawn from Table 3
Method: Vesicle dispersion liquid 1, Vesicle dispersion liquid 2, Comparative Example 4, Comparative Example 5, and Comparative Example 6 were each used as a sample. The skin was previously applied and blocked with 1% sodium lauryl sulfate aqueous solution for 24 hours to enhance transepidermal water loss (TEWL), and was applied and blocked with the sample for 6 hours, and 30 minutes after removing a bandage, TEWL was determined using Tewameter (manufactured by Integral Corporation). It should be noted that water was applied as a control. […] This is inferably because the dermis-reaching property of Palmaria extract 1, which is an active ingredient, has been enhanced owing to the vesicle.

CCCCCCCCCCCC(=O)N[C@@H](CCC(=O)NCCCC[C@H](NC(=O)CC[C@H](NC(=O)CCCCCCCCCCC)C(=O)O)C(=O)O)C(=O)O [Pellicer L-30, α,ε-bis (γ-N-lauroylglutamyl)lysine]
TEWL-suppressing effect (in words): had a function of suppressing TEWL
